Measured values: patent US20080090805A1, “CB-1 MODULATING COMPOUNDS AND THEIR USE” (ACADIA PHARMACEUTICALS INC., priority 2005, published 2008)

Experiments:
NSA mice = assay: Hypothermia study (block of CP 55,940-induced hypothermia); format: in vivo; design: Hypothermia 3 mg/kg / Hypothermia 0.3 mg/kg: unit not given here; conditions: for Hypothermia ID50: block of CP 55,940-induced hypothermia
Description: . […] Core body temperatures were then obtained at various time points following CP 55,940 administration. Core body temperature (to the nearest 0.1° C.) was obtained by rectal probe.

native CB1 receptors = native CB1 receptors (Rattus norvegicus, UniProt P20272); assay: CB1 receptor rat binding assay ([3H]SR141716A, rat brain membranes); conditions: rat brain membranes, [3H]SR141716A; for Ki: read-out: Binding rat pKi (converted)
Chain of native CB1 receptors (P20272 whole entry): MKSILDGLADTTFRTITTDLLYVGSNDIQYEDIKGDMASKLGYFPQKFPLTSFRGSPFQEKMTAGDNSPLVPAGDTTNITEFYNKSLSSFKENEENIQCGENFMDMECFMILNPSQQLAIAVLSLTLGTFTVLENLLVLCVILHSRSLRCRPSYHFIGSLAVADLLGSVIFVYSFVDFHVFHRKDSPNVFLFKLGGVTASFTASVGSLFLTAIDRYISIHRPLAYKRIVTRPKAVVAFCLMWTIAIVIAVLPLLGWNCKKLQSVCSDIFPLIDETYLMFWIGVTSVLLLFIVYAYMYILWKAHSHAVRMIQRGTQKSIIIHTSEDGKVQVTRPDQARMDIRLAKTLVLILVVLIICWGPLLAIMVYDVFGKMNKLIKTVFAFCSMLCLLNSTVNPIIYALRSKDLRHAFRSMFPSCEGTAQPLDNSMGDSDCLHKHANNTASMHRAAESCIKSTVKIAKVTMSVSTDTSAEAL

CC(C)CNC(=O)c1ccc2c(c1)N=C(c1ccc(Cl)cc1F)c1ccccc1S2 [drawing 1576]
Hypothermia 0.3 mg/kg (NSA mice): 0 | Hypothermia 3 mg/kg (NSA mice): 71

CCCCNC(=O)c1ccc2c(c1)N=C(c1ccc(Cl)cc1)c1ccccc1S2 [drawing 1560]
Hypothermia 0.3 mg/kg (NSA mice): 15 | Hypothermia 3 mg/kg (NSA mice): 82 | Hypothermia ID50 (NSA mice): 0.79 mg/kg

O=C(NC1CCC(F)(F)CC1)c1ccc2c(c1)N=C(c1cccc(F)c1)c1ccccc1S2 [drawing 1608]
Hypothermia 3 mg/kg (NSA mice): 46

O=C(NCc1cccs1)c1ccc2c(c1)N=C(c1ccc(Cl)s1)c1ccccc1S2 [drawing 1612]
Hypothermia 3 mg/kg (NSA mice): 47

CCCCNC(=O)c1ccc2c(c1)N=C(c1ccc(Cl)s1)c1ccccc1S2 [drawing 1568]
Hypothermia 0.3 mg/kg (NSA mice): 12 | Hypothermia 3 mg/kg (NSA mice): 53 | Hypothermia ID50 (NSA mice): 2.3 mg/kg

O=C(NCc1cccc(Cl)c1)c1ccc2c(c1)N=C(c1ccc(F)cc1)c1ccccc1S2(=O)=O [drawing 1571]
Hypothermia 3 mg/kg (NSA mice): 45

CC(C)CNC(=O)c1ccc2c(c1)N=C(c1ccc(Cl)s1)c1ccc(F)cc1S2 [drawing 1644]
Hypothermia 3 mg/kg (NSA mice): 12

O=C(NCc1cccs1)c1ccc2c(c1)N=C(c1ccccc1F)c1ccccc1S2 [drawing 1623]
Hypothermia 3 mg/kg (NSA mice): 10

CC(C)CNC(=O)c1ccc2c(c1)N=C(c1cccc(Cl)c1)c1ccccc1S2 [drawing 1646]
Hypothermia 3 mg/kg (NSA mice): 54

O=C(NN1CCCCCC1)c1ccc2c(c1)N=C(c1cccc(F)c1)c1ccccc1S2 [drawing 1590]
Hypothermia 0.3 mg/kg (NSA mice): 21 | Hypothermia 3 mg/kg (NSA mice): 85 | Hypothermia ID50 (NSA mice): 0.93 mg/kg

O=C(NCc1ccc(F)cc1)c1ccc2c(c1)N=C(c1ccc(Cl)cc1)c1ccccc1[S+]2[O-] (stereo not drawn) [drawing 1645]
Hypothermia 3 mg/kg (NSA mice): 22

Cc1ccc(CNC(=O)c2ccc3c(c2)N=C(c2ccc(Cl)s2)c2ccccc2S3)o1 [drawing 1594]
Hypothermia 3 mg/kg (NSA mice): 16

CC(C)CNC(=O)c1ccc2c(c1)N=C(c1ccc(Cl)cn1)c1ccc(F)cc1S2 [drawing 1625]
Hypothermia 3 mg/kg (NSA mice): 27

O=C(NCc1cccs1)c1ccc2c(c1)N=C(c1ccc(F)cc1)c1ccccc1S2 [drawing 1558]
Hypothermia 0.3 mg/kg (NSA mice): 19 | Hypothermia 3 mg/kg (NSA mice): 90 | Hypothermia ID50 (NSA mice): 1 mg/kg

C[C@@H]1CCC[C@H](C)N1NC(=O)c1ccc2c(c1)N=C(c1cccc(F)c1)c1ccccc1S2 [drawing 1635]
Hypothermia 3 mg/kg (NSA mice): 17

O=C(NCc1ccco1)c1ccc2c(c1)N=C(c1cccc(F)c1)c1ccccc1S2 [drawing 1631]
Hypothermia 3 mg/kg (NSA mice): 21

COc1cccc(C2=Nc3cc(C(=O)NCCCC(F)(F)F)ccc3Sc3ccccc32)n1 [drawing 1566]
Hypothermia 3 mg/kg (NSA mice): 46

CCCCNC(=O)c1ccc2c(c1)N=C(c1ccc(Cl)cn1)c1cc(F)ccc1S2 [drawing 1627]
Hypothermia 3 mg/kg (NSA mice): 8

CC(C)CNC(=O)c1ccc2c(c1)N=C(c1ccc(Cl)cc1)c1ccc(F)cc1S2 [drawing 1556]
Hypothermia 3 mg/kg (NSA mice): 41

O=C(NCc1ccccc1)c1ccc2c(c1)N=C(c1ccc(Cl)cc1)c1ccccc1S2 [drawing 1648]
Hypothermia 3 mg/kg (NSA mice): 68

O=C(NCc1ccccc1Cl)c1ccc2c(c1)N=C(c1cccc(Cl)c1)c1ccccc1S2 [drawing 1573]
Hypothermia 3 mg/kg (NSA mice): −2

O=C(NCc1cccnc1)c1ccc2c(c1)N=C(c1ccc(F)cc1)c1ccccc1S2 [drawing 1611]
Hypothermia 0.3 mg/kg (NSA mice): 11 | Hypothermia 3 mg/kg (NSA mice): 28

O=C(NC1CCCCC1)c1ccc2c(c1)N=C(c1cccc(F)c1)c1ccccc1S2 [drawing 1632]
Hypothermia 3 mg/kg (NSA mice): 44

CCCCNC(=O)c1ccc2c(c1)N=C(c1ccc(Cl)s1)c1cc(Cl)ccc1S2 [drawing 1577]
Hypothermia 3 mg/kg (NSA mice): −9

O=C(NN1CCCCCC1)c1ccc2c(c1)N=C(c1ccc(Cl)s1)c1ccccc1S2 [drawing 1584]
Hypothermia 0.3 mg/kg (NSA mice): 33 | Hypothermia 3 mg/kg (NSA mice): 83 | Hypothermia ID50 (NSA mice): 0.59 mg/kg

CCOCCNC(=O)c1ccc2c(c1)N=C(c1ccc(Br)cc1)c1ccccc1S2 [drawing 1404]
Binding rat Inh % (native CB1 receptors): 81% | Ki (native CB1 receptors): 0.0398 µM

CC(C)CCNC(=O)c1ccc2c(c1)N=C(c1ccc(F)cc1)c1ccccc1S2 [drawing 1330]
Binding rat Inh % (native CB1 receptors): 91% | Ki (native CB1 receptors): 0.00398 µM

CCONC(=O)c1ccc2c(c1)N=C(c1ccc(Cl)c(Cl)c1)c1ccccc1S2 [drawing 1512]
Binding rat Inh % (native CB1 receptors): 73% | Ki (native CB1 receptors): 0.0794 µM

O=C(NCc1ccncc1)c1ccc2c(c1)N=C(c1cccc(Br)c1)c1ccccc1S2 [drawing 1511]
Binding rat Inh % (native CB1 receptors): 76% | Ki (native CB1 receptors): 0.0794 µM

Cc1ccsc1C1=Nc2cc(C(=O)NCc3cccs3)ccc2Sc2ccccc21 [drawing 1344]
Binding rat Inh % (native CB1 receptors): 99% | Ki (native CB1 receptors): 0.00398 µM

O=C(NCCC(F)(F)F)c1ccc2c(c1)N=C(c1ccc(Cl)cc1F)c1ccccc1S2 [drawing 1377]
Binding rat Inh % (native CB1 receptors): 97% | Ki (native CB1 receptors): 0.00501 µM

O=C(NNC(=O)c1ccc2c(c1)N=C(c1cccc(Br)c1)c1ccccc1S2)c1ccccc1
Binding rat Inh % (native CB1 receptors): 73% | Ki (native CB1 receptors): 0.1 µM

CCCC1=Nc2cc(C(=O)NC3CCC(C)CC3)ccc2Sc2ccccc21 (stereo not drawn) [drawing 1437]
Ki (native CB1 receptors): 0.0501 µM

O=C(NNCC(F)(F)F)c1ccc2c(c1)N=C(c1ccc(Cl)cc1)c1ccccc1S2 [drawing 1488]
Binding rat Inh % (native CB1 receptors): 70% | Ki (native CB1 receptors): 0.01 µM

CCCCNS(=O)(=O)c1ccc2c(c1)N=C(c1ccc(Cl)cc1)c1ccccc1S2 [drawing 1405]
Binding rat Inh % (native CB1 receptors): 92% | Ki (native CB1 receptors): 0.0398 µM

O=C(NCc1ccncc1)c1ccc2c(c1)N=C(c1ccc(F)cc1)c1ccccc1S2 [drawing 1443]
Binding rat Inh % (native CB1 receptors): 68% | Ki (native CB1 receptors): 0.0501 µM

O=C(NCc1cccc(Cl)c1)c1ccc2c(c1)N=C(c1ccccc1F)c1ccccc1S2 [drawing 1510]
Ki (native CB1 receptors): 0.01 µM

Cc1ccc(CNC(=O)c2ccc3c(c2)N=C(c2ccc(Cl)c(Cl)c2)c2ccccc2S3)o1 [drawing 1320]
Binding rat Inh % (native CB1 receptors): 96% | Ki (native CB1 receptors): 0.00316 µM

O=C(NCc1ccco1)c1ccc2c(c1)N=C(c1ccc(Cl)s1)c1ccccc1S2 [drawing 1383]
Binding rat Inh % (native CB1 receptors): 112% | Ki (native CB1 receptors): 0.00501 µM

CCCNC(=O)c1ccc2c(c1)N=C(c1ccc(Br)cc1)c1ccccc1S2 [drawing 1259]
Binding rat Inh % (native CB1 receptors): 65% | Ki (native CB1 receptors): 0.0158 µM

CC(CNC(=O)c1ccc2c(c1)N=C(c1ccccc1)c1ccccc1S2)c1ccccc1 (stereo not drawn) [drawing 1197]
Ki (native CB1 receptors): 0.0126 µM

CC(C)CNC(=O)c1ccc2c(c1)N=C(c1ccccc1F)c1ccccc1S2 [drawing 1307]
Binding rat Inh % (native CB1 receptors): 90% | Ki (native CB1 receptors): 0.02 µM

O=C(NCCCC(F)(F)F)c1ccc2c(c1)N=C(c1ccccn1)c1ccccc1S2 [drawing 1473]
Binding rat Inh % (native CB1 receptors): 92% | Ki (native CB1 receptors): 0.00794 µM

O=C(NN1CCCCC1)c1ccc2c(c1)N=C(c1ccc(Cl)s1)c1ccccc1S2 [drawing 1385]
Binding rat Inh % (native CB1 receptors): 88% | Ki (native CB1 receptors): 0.00501 µM

O=C(NCc1cccc(Cl)c1)c1ccc2c(c1)N=C(N1CCC(F)CC1)c1ccccc1S2 [drawing 1523]
Ki (native CB1 receptors): 0.01 µM

CCCCNC(=O)c1ccc2c(c1)N=C(c1ccc(F)c(F)c1)c1ccccc1S2
Binding rat Inh % (native CB1 receptors): 102% | Ki (native CB1 receptors): 0.00251 µM

O=C(NCCc1cccnc1)c1ccc2c(c1)N=C(c1ccc(F)cc1)c1ccccc1S2 [drawing 1203]
Binding rat Inh % (native CB1 receptors): 96% | Ki (native CB1 receptors): 0.0126 µM

O=C(NCc1ccc(F)cc1)c1ccc2c(c1)N=C(c1ccccc1F)c1ccccc1S2 [drawing 1299]
Ki (native CB1 receptors): 0.02 µM

O=C(NC1CCC(F)(F)CC1)c1ccc2c(c1)N=C(c1ccc(Cl)cc1F)c1ccccc1S2
Binding rat Inh % (native CB1 receptors): 78% | Ki (native CB1 receptors): 0.001 µM

O=C(NCCc1cccnc1)c1ccc2c(c1)N=C(c1ccc(Cl)cc1)c1ccccc1S2 [drawing 1334]
Binding rat Inh % (native CB1 receptors): 103% | Ki (native CB1 receptors): 0.0251 µM

O=C(NC1CCCCC1)c1ccc2c(c1)N=C(c1ccccn1)c1ccccc1S2 [drawing 1537]
Binding rat Inh % (native CB1 receptors): 77% | Ki (native CB1 receptors): 0.1 µM

CCCCNC(=O)c1ccc2c(c1)N=C(c1ccc(F)cn1)c1ccccc1S2 [drawing 1246]
Binding rat Inh % (native CB1 receptors): 87% | Ki (native CB1 receptors): 0.0158 µM

O=C(Cc1ccccc1)NNC(=O)c1ccc2c(c1)N=C(c1ccc(F)cc1)c1ccccc1S2 [drawing 1190]
Binding rat Inh % (native CB1 receptors): 65% | Ki (native CB1 receptors): 0.0126 µM

O=C(NCc1cccnc1)c1ccc2c(c1)N=C(c1ccc(F)cc1)c1ccccc1S2 [drawing 1541]
Binding rat Inh % (native CB1 receptors): 97% | Ki (native CB1 receptors): 0.0126 µM

O=C(NN1CCCCC1)c1ccc2c(c1)N=C(c1cccc(Cl)c1)c1ccccc1O2
Ki (native CB1 receptors): 0.0398 µM

O=C(NCCCC(F)(F)F)c1ccc2c(c1)N=C(c1cccc(F)c1)c1ccccc1S2 [drawing 1248]
Binding rat Inh % (native CB1 receptors): 83% | Ki (native CB1 receptors): 0.001 µM

O=C(NN1CCCCC1)c1ccc2c(c1)N=C(c1cccc(Cl)c1)c1ccccc1S2 [drawing 1380]
Binding rat Inh % (native CB1 receptors): 79% | Ki (native CB1 receptors): 0.0316 µM

CCCNC(=O)c1ccc2c(c1)N=C(c1ccc(Cl)cc1F)c1ccccc1S2 [drawing 1276]
Binding rat Inh % (native CB1 receptors): 98% | Ki (native CB1 receptors): 0.02 µM

Cc1ccc(CNC(=O)c2ccc3c(c2)N=C(c2cccc(Cl)c2)c2ccccc2S3)o1 [drawing 1231]
Binding rat Inh % (native CB1 receptors): 85% | Ki (native CB1 receptors): 0.000631 µM

CCCCNC(=O)c1ccc2c(c1)N=C(c1ccc(Cl)cc1)c1sccc1S2 [drawing 1247]
Binding rat Inh % (native CB1 receptors): 97% | Ki (native CB1 receptors): 0.001 µM

O=C(NCCCc1ccccc1)c1ccc2c(c1)N=C(N1CCCCC1)c1ccccc1S2 [drawing 1533]
Ki (native CB1 receptors): 0.01 µM

O=C(NCc1cccc(Cl)c1)c1ccc2c(c1)N=C(c1ccc(F)cc1)c1ccccc1S2(=O)=O [drawing 1408]
Ki (native CB1 receptors): 0.00631 µM

CCCCNC(=O)c1cc2c(cc1O)Sc1ccccc1C(c1ccc(Cl)cc1)=N2 [drawing 1410]
Binding rat Inh % (native CB1 receptors): 103% | Ki (native CB1 receptors): 0.00631 µM

Cc1ccsc1C1=Nc2cc(C(=O)NC3CCC(F)(F)CC3)ccc2Sc2ccccc21 [drawing 1265]
Binding rat Inh % (native CB1 receptors): 93% | Ki (native CB1 receptors): 0.00158 µM

CCCCNC(=O)c1ccc2c(c1)N=C(c1ccc(Cl)s1)c1ccc(Cl)cc1S2 [drawing 1480]
Binding rat Inh % (native CB1 receptors): 90% | Ki (native CB1 receptors): 0.01 µM

CCCCNC(=O)c1ccc2c(c1)N=C(c1ccc(Cl)cc1)c1cc(Cl)ccc1S2 [drawing 1464]
Binding rat Inh % (native CB1 receptors): 78% | Ki (native CB1 receptors): 0.00794 µM
